Here are results for 6 compounds from article PMC8912030, “Secondary Metabolites with Anti-Inflammatory from the Roots of Cimicifuga taiwanensis” (Molecules, 2022).

In data set [1] the test system is LPS-activated NO production in RAW 264.7 macrophages. Kind of data set: Inhibition of LPS-induced NO production (Griess reagent assay, nitrite). It is filed as cell-based, mouse. The settings on record: for IC50: Mus musculus, read-out: IC50 NO; for NO inhibitory activity (in words): LPS-induced NO production in RAW 264.7; for fold NO inhibitory activity compared with quercetin: ratio to quercetin IC50 34.58 μM. On the procedure:
The anti-inflammatory activities of the 5 isolates (2–6) in sufficient amounts were evaluated by examining their inhibitory effects on lipopolysaccharide (LPS)-induced inducible nitric oxide synthase (iNOS)-dependent NO 6 production in the murine macrophage cell line RAW 264.7 (Table 4). From the results of our anti-inflammatory tests, the following conclusions could be drawn.
(§1) The mouse macrophage cell line (RAW 264.7) was obtained from the Bioresource Collection and Research Center (BCRC 60001) and cultured at 37 °C in Dulbecco’s Modified Eagle’s Medium (DMEM) supplemented with 10% fetal bovine serum (Gibco), 4.5 g/L glucose, 4 mM glutamine, penicillin (100 units/mL), and streptomycin (100 μg/mL) in a humidified atmosphere in a 5% CO2 incubator. The cells were treated with 10, 25, and 50 μM of natural products in the presence of 1 μg/mL lipopolysaccharide (LPS, Sigma-Aldrich) for 20 h. The concentration of NO in the culture supernatants was determined to be nitrite, a major stable product of NO, by a Griess reagent assay, and cell viabilities were determined using the MTT assay as described previously.

The next data set relates to RAW 264.7 macrophages. Kind of data set: Cell viability (MTT assay). Format: cell-based, mouse. On the procedure:
(§2) The cytotoxic effects were tested using an MTT experiment.
as §1
(In general: Tetrazolium dyes change colour on reduction, which living cells bring about.)

A short description of data set [2]: Cell viability (MTT assay). Format: cell-based, mouse. The settings on record: mouse. On the procedure:
as §2, §1

The mark [3] stands for this setting: RAW264.7, RAW 264.7, 1 μg/mL LPS, 20 h, mean ± SEM (n = 4) of 3 independent experiments.

Like-named read-outs stand apart in the source and are kept apart here.

The IC50 is the concentration that gives 50% inhibition. As to `O=c1c(O)c(-c2ccc(O)c(O)c2)oc2cc(O)cc(O)c12` [Quercetin, quercetin, reference compound], in data set [1] (setting [3]), the IC50 came to 34.6 ± 2.34 µM. Further, the “Cell Viability (% Control)” value in the data set on RAW 264.7 macrophages (RAW 264.7, MTT, mean ± SEM, concentration not given in table (text: 50 μM)) is listed as 95.56 ± 1.91 % Control.

By viability is commonly meant a per cent measure of how many cells are alive, often set against a control. As to `CC1CC2OC3(OC2C(C)(C)O)C1C1(C)CCC24CC25C=CC(=O)C(C)(C)C5CC=C4C1(C)C3O` (stereo not drawn) [Compound 5, cimicitaiwanin E], the “NO inhibitory activity (in words)” value in data set [1] is reported as “moderate”; in data set [1] (listed as Cimicitaiwanin E), “showed inhibitory activities”. Moreover, in data set [1] (RAW264.7, 20 h), the IC50 is 24.6 ± 4.97 µM. The compound further came in with a viability at 20 h, 50 µM in data set [2] of 89%. Further, the “Cell Viability (% Control)” value in the data set with RAW 264.7 macrophages (50 µM) is listed as 88.54 ± 1.50 % Control.

As for `CC(C=CC1C(C)CC(O)CC1(C)C)=CC(=O)O` [Compound 6, rel-(2E,4E)-5-((3S,5R,6R,)-4-hydroxy-2,2,6-trimethylcyclohexyl)-3-methylpenta-2,4-dienoic acid], in data set [1], the “NO inhibitory activity (in words)” value was “showed inhibitory activities” and the “fold NO inhibitory activity compared with quercetin” value (shortened to “fold NO inhibitory activity”) is recorded as “two”. Moreover, the IC50 in data set [1] (setting [3]) came to 15.4 ± 0.85 µM. In data set [2], this compound had a viability at 20 h, 50 µM of 87%. Further, the “Cell Viability (% Control)” value in the data set on RAW 264.7 macrophages (50 µM) was 86.84 ± 2.95 % Control.

Usually melting point stands for the temperature of the solid-liquid transition. Consider `CC(=O)OC(C)(C)C1OC23OC1CC(C)C2C1(C)CC(=O)C2=C(C(O)CC4C5(CCC(O5)C4(C)C)C2)C1(C)C3O` (stereo not drawn) [Compound 3, 25-O-acetyl-7β-hydroxy-11-oxoacerinol], for which the melting point is 103 to 105 °C. Also, in data set [1], the “NO inhibitory activity (in words)” value is “showed inhibitory activities” and the “fold NO inhibitory activity” value is “five”. In addition, the IC50 in data set [1] (setting [3]) stood at 6.54 ± 0.87 µM. In data set [2], this compound showed a viability at 20 h, 50 µM of 95%. In the data set on RAW 264.7 macrophages (50 µM), the “Cell Viability (% Control)” value came out at 95.53 ± 3.39 % Control.

Regarding `CC(=O)OC(C)(C)C1OC23OC1CC(C)C2C1(C)CCC2=C(CCC4C(=CCC(OC5OCC(O)C(O)C5O)C4(C)C)C2)C1(C)C3O` (stereo not drawn) [Compound 4, cimicitaiwanin D], in data set [1], the “NO inhibitory activity (in words)” value was “showed inhibitory activities” and the “fold NO inhibitory activity” value was “three”. Besides, in data set [1] (setting [3]), the IC50 came out at 10.1 ± 0.47 µM. Further, in data set [2], the viability at 20 h, 50 µM came to 91%. Further, the “Cell Viability (% Control)” value with RAW 264.7 macrophages (50 µM) is 91.12 ± 4.22 % Control.

As to `CC(=O)OC(C)(C)C1OC23OC1CC(C)C2C1(C)C(O)CC2=C(CCC4C5(CCC(O5)C4(C)C)C2)C1(C)C3O` (stereo not drawn) [Compound 2, 25-O-acetyl-12β-hydroxyacerinol], in data set [1] (setting [3]), the IC50 turned out to be 8.37 ± 3.25 µM. The “fold NO inhibitory activity” value in data set [1] is given as “about four”. The viability at 20 h, 50 µM in data set [2] is < 80%. Besides, the “Cell Viability (% Control)” value with RAW 264.7 macrophages (50 µM) came to 69.14 ± 2.87 % Control.
